Results published in patent US11559575B2, “Multi-epitopic peptide compounds and vaccines against leishmaniasis” (INSTITUT DE RECHERCHE POUR LE DEVELOPPEMENT, priority 2018, dated 2023).
“Also recorded” adds a separate entry of the source.

test system: HLA alleles of class II; test: Affinity of epitopes for HLA alleles of class II; format: binding, human; settings: H2B-II core epitopes, Table 1
Source text: The multiepitopic peptide compounds (24 to 40-mer), having a high affinity with a maximized number of HLA molecules of class I and of class II, such as the affinities for the alleles HLA of class I and HLA of class II of the epitopes in the peptides of the sequences SEQ ID NO: 22, 23, 65, 66, 69, 73, 77, 96, 97, 137, 138, and 157, 185, have a high immunoprevalent potential corresponding to an optimal vaccine coverage, in particular for the populations concerned. The degree of coverage of the peptide compounds of the invention show a very high added value compared with the peptides of the prior art.

Row | Sequence | Affinity HLA alleles of class II
1 | NAQMSMSHR (Leishmania major) [SEQ ID NO: 46] | HLA-DRB1*01:01
2 | PKRSWNVYV (Leishmania major) [SEQ ID NO: 48] | HLA-DRB1*13:02,; also recorded: HLA-DRB1*15:01
3 | VGRSLKAIN (Leishmania major) [SEQ ID NO: 51] | HLA-DRB1*03:01,; also recorded: HLA-DRB1*04:05,; also recorded: HLA-DRB1*08:02,; also recorded: HLA-DRB1*11:01
4 | WNVYVGRSL (Leishmania major) [SEQ ID NO: 53] | HLA-DRB1*04:05,; also recorded: HLA-DRB1*07:01,; also recorded: HLA-DRB1*09:01,; also recorded: HLA-DRB1*15:01,; also recorded: HLA-DRB5*01:01

same assay, conditions: H2B-II peptides, Table 1

Row | Sequence | Concatenation affinity for the HLA alleles of class II
5 | NVYVGRSLKAINAQM (Leishmania major) [SEQ ID NO: 31] | HLA-DRB1*04:01, HLA-DRB4*01:01, HLA-DRB1*03:01,; also recorded: HLA-DRB1*04:05, HLA-DRB1*11:01, HLA-DRB1*01:01,; also recorded: HLA-DRB1*09:01, HLA-DRB1*15:01, HLA-DRB1*08:02
6 | PKRSWNVYVGRSLKA (Leishmania major) [SEQ ID NO: 26] | HLA-DRB5*01:01, HLA-DRB1*01:01, HLA-DRB1*11:01,; also recorded: HLA-DRB5*13:02, HLA-DRB5*07:01, HLA-DRB5*09:01,; also recorded: HLA-DRB5*15:01
7 | RKPKRSWNVYVGRSL (Leishmania major) [SEQ ID NO: 24] | HLA-DRB1*13:02, HLA-DRB1*01:01, HLA-DRB1*07:01,; also recorded: HLA-DRB1*09:01, HLA-DRB1*15:01
8 | RSLKAINAWMSMSHR (RSLKAINAQMSMSHR; Leishmania major) [SEQ ID NO: 36] | HLA-DRB1*04:01, HLA-DRB1*15:01, HLA-DRB1*05:01,; also recorded: HLA-DRB1*01:01, HLA-DRB1*04:05, HLA-DRB1*07:01,; also recorded: HLA-DRB1*08:02, HLA-DRB1*09:01, HLA-DRB1*11:01,; also recorded: HLA-DRB4*01:01,
9 | RSWNVYVGRSLKAIN (Leishmania major) [SEQ ID NO: 28] | HLA-DRB5*01:01, HLA-DRB1*01:01, HLA-DRB1*03:01,; also recorded: HLA-DRB1*04:01, HLA-DRB1*11:01, HLA-DRB1*13:02,; also recorded: HLA-DRB1*04:05, HLA-DRB1*07:01, HLA-DRB1*09:01,; also recorded: HLA-DRB1*15:01, HLA-DPA1*02:01/DPB1*01:01,; also recorded: HLA-DRB1*08:02
10 | SLKAINAQMSMSHRT (Leishmania major) [SEQ ID NO: 37] | HLA-DRB1*07:01, HLA-DRB1*04:01, HLA-DRB1*04:05,; also recorded: HLA-DRB1*09:01, HLA-DRB1*11:01, HLA-DRB1*15:01,; also recorded: HLA-DRB5*01:01, HLA-DRB1*01:01, HLA-DRB1*08:02,; also recorded: HLA-DRB4*01:01,
11 | SWNVYVGRSLKAINA (Leishmania major) [SEQ ID NO: 29] | HLA-DRB5*01:01, HLA-DRB1*04:05, HLA-DPA1*03:01/; also recorded: DPB1*04:02, HLA-DRB1*01:01, HLA-DRB1*03:01,; also recorded: HLA-DRB1*04:01, HLA-DRB1*11:01, HLA-DRB1*13:02,; also recorded: HLA-DRB1*07:01, HLA-DRB1*09:01, HLA-DRB1*15:01,; also recorded: HLA-DPA1*02:01/DPB1*01:01, HLA-DRB1*08:02
12 | VGRSLKAINAWMSMS (VGRSLKAINAQMSMS; Leishmania major) [SEQ ID NO: 34] | HLA-DRB1*01:01, HLA-DRB1*04:05, HLA-DRB1*07:01,; also recorded: HLA-DRB1*09:01, HLA-DRB4*01:01, HLA-DRB5*01:01,; also recorded: HLA-DRB1*04:01, HLA-DRB1*08:02, HLA-DRB1*11:01,; also recorded: HLA-DRB1*13:02
13 | VYVGRSLKAINAQMS (Leishmania major) [SEQ ID NO: 32] | HLA-DRB1*01:01, HLA-DRB1*04:05, HLA-DRB1*07:01,; also recorded: HLA-DRB4*01:01, HLA-DRB1*04:01, HLA-DRB1*09:01,; also recorded: HLA-DRB1*03:01, HLA-DRB1*11:01, HLA-DRB1*15:01,; also recorded: HLA-DRB1*08:02
14 | WNVYVGRSLKAINAQ (Leishmania major) [SEQ ID NO: 30] | HLA-DRB5*01:01, HLA-DRB1*04:05, HLA-DPA1*03:01/; also recorded: DPB1*04:02, HLA-DRB1*01:01, HLA-DRB1*03:01,; also recorded: HLA-DRB1*04:01, HLA-DRB1*11:01, HLA-DRB1*07:01,; also recorded: HLA-DRB9*01:01, HLA-DRB1*15:01, HLA-DPA1*02:01/; also recorded: DPB1*01:01, HLA-DRB1*08:02

same assay, conditions: LmLRAB-IIA core, Table 2

Row | Sequence | Concatenation affinity for HLA alleles of class II
15 | VGRHLSIVA (Leishmania major) [SEQ ID NO: 91] | HLA-DRB1*15:01

same assay, conditions: LmLRAB-IIA peptides, Table 2

Row | Sequence | Concatenation affinity for HLA alleles of class II
16 | RHLSIVADHMPLHDQ (RHLSIVADHMPHLDQ; Leishmania major) [SEQ ID NO: 87] | HLA-DRB3*01:01,; also recorded: HLA-DRB1*03:01,; also recorded: HLA-DRB1*13:02
17 | RLHSVVGRHLSIVAD (Leishmania major) [SEQ ID NO: 80] | HLA-DRB1*07:01,; also recorded: HLA-DRB1*15:01,; also recorded: HLA-DRB5*01:01,; also recorded: HLA-DRB1*11:01,; also recorded: HLA-DRB1*09:01,
18 | SVVGRHLSIVADHMP (Leishmania major) [SEQ ID NO: 83] | HLA-DRB1*15:01
19 | VGRHLSIVADHMPHL (Leishmania major) [SEQ ID NO: 85] | HLA-DRB1*03:01,; also recorded: HLA-DRB3*01:01,; also recorded: HLA-DRB1*13:02,; also recorded: HLA-DRB1*15:01,
20 | VVGRHLSIVADHMPH (Leishmania major) [SEQ ID NO: 84] | HLA-DRB1*01:01

same assay, conditions: LmlRAB-IIB core, Table 2

Row | Sequence | Concatenation affinity for HLA alleles of class II
21 | NAIVTSRKV (Leishmania major) [SEQ ID NO: 125] | HLA-DRB1*07:01
22 | YSEVSAKTK (Leishmania major) [SEQ ID NO: 127] | HLA-DRB1*07:01,; also recorded: HLA-DRB5*01:01

same assay, conditions: LmlRAB-IIB peptides, Table 2

Row | Sequence | Concatenation affinity for HLA alleles of class II
23 | NAIVTSRKVQEEVFD (Leishmania major) [SEQ ID NO: 109] | HLA-DRB1*03:01, HLA-DRB1*07:01,; also recorded: HLA-DRB1*08:02, HLA-DRB1*11:01,; also recorded: HLA-DRB1*12:01
24 | RKVQEEVFDLFTDVH (Leishmania major) [SEQ ID NO: 111] | HLA-DRB1*03:01, HLA-DRB1*04:01,; also recorded: HLA-DPA1*02:01/DPB1*05:01,; also recorded: HLA-DPA1*03:01/DPB1*04:02
25 | RSENAIVTSRKVQEE (Leishmania major) [SEQ ID NO: 112] | HLA-DRB1*01:01, HLA-DRB1*03:01,; also recorded: HLA-DRB1*07:01, HLA-DRB1*11:01,; also recorded: HLA-DRB5*01:01
26 | SENAIVTSRKVQEEV (Leishmania major) [SEQ ID NO: 113] | HLA-DRB1*03:01, HLA-DRB1*07:01,; also recorded: HLA-DRB1*08:02, HLA-DRB1*11:01,; also recorded: HLA-DRB1*12:01
27 | SRKVQEEVFDLFTDV (Leishmania major) [SEQ ID NO: 114] | HLA-DRB1*03:01, HLA-DPA1*01:03/DPB1*02:01,; also recorded: HLA-DPA1*02:01/DPB1*05:01,; also recorded: HLA-DPA1*03:01/DPB1*04:02
28 | TSRKVQEEVFDLFTD (Leishmania major) [SEQ ID NO: 115] | HLA-DRB1*03:01, HLA-DPA1*01:03/DPB1*02:01,; also recorded: HLA-DPA1*02:01/DPB1*05:01,; also recorded: HLA-DPA1*03:01/HLA-DPB1*04:02,; also recorded: HLA-DPA1*02:01/HLA-DPB1*14:01
29 | VQEEVFDLFTDVHYS (Leishmania major) [SEQ ID NO: 117] | HLA-DRB1*03:01, HLA-DRB1*04:01,; also recorded: HLA-DRB1*04:05, HLA-DRB1*07:01,; also recorded: HLA-DRB1*15:01, HLA-DPA1*01:03/DPB1*02:01,; also recorded: HLA-DPA1*02:01/DPB1*05:01,; also recorded: HLA-DPA1*03:01/DPB1*04:02
30 | VTSRKQEEVFDLFT (Leishmania major) [SEQ ID NO: 118] | HLA-DRB1*03:01, HLA-DPA1*01:03/DPB1*02:01,; also recorded: HLA-DPA1*02:01/DPB1*05:01,; also recorded: HLA-DPA1*03:01/HLA-DPB1*04:02,; also recorded: HLA-DPA1*02:01/HLA-DPB1*14:01

same assay, conditions: PSA KC-2.6 core, Table 3

Row | Sequence | Concatenation affinity for HLA alleles of class II
31 | RSGEGYFLT (listed as Leishmania infantum) [SEQ ID NO: 149] | HLA-DRB1*03:01,; also recorded: HLA-DRB3*01:01
32 | YFLTDEKTS (listed as Leishmania infantum) [SEQ ID NO: 150] | HLA-DRB1*04:01,; also recorded: HLA-DRB1*11:01

same assay, conditions: PSA KC-2.6 peptides, Table 3

Row | Sequence | Concatenation affinity for HLA alleles of class II
33 | RSGEGYFLTDEKTSL (listed as Leishmania infantum) [SEQ ID NO: 143] | HLA-DRB1*01:01, HLA-DRB1*03:01,; also recorded: HLA-DRB1*04:01, HLA-DRB3*01:01,; also recorded: HLA-DPA1*03:01/DPB1*14:01
34 | SGEGYFLTDEKTSLV (listed as Leishmania infantum) [SEQ ID NO: 144] | HLA-DRB1*01:01, HLA-DRB1*03:01,; also recorded: HLA-DRB1*04:01, HLA-DRB1*04:05,; also recorded: HLA-DRB1*07:01, HLA-DRB1*11:01,; also recorded: HLA-DRB3*01:01, HLA-DRB3*02:02,; also recorded: HLA-DPA1*02:01/DPB1*01:01
35 | YFLTDEKTSLVYGDG (listed as Leishmania infantum) [SEQ ID NO: 145] | HLA-DRB1*01:01, HLA-DRB1*03:01,; also recorded: HLA-DRB1*04:01, HLA-DRB3*01:01,; also recorded: HLA-DRB3*02:02,; also recorded: HLA-DPA1*03:01/DPB1*04:02,; also recorded: HLA-DPA1*02:01/DPB1*14:01

same assay, conditions: PSA KC-2.7 core, Table 3

Row | Sequence | Concatenation affinity for HLA alleles of class II
36 | MIRDLDFSN (listed as Leishmania infantum) [SEQ ID NO: 176] | HLA-DRB1*03:01,; also recorded: HLA-DRB1*04:01,; also recorded: HLA-DRB1*04:05,; also recorded: HLA-DRB1*08:02

same assay, conditions: PSA KC-2.7 peptides, Table 3

Row | Sequence | Concatenation affinity for HLA alleles of class II
37 | MPSGSDYSHSMIRDL (listed as Leishmania infantum) [SEQ ID NO: 163] | HLA-DRB1*04:05, HLA-DRB1*07:01,; also recorded: HLA-DRB1*09:01, HLA-DRB5*01:01
38 | PSGSDYSHSMIRDLD (listed as Leishmania infantum) [SEQ ID NO: 164] | HLA-DRB1*04:05, HLA-DRB1*07:01,; also recorded: HLA-DRB1*09:01, HLA-DRB5*01:01,; also recorded: LA-DPA1*02:01/DPB1*01:01
39 | SDYSHSMIRDLDFSN (listed as Leishmania infantum) [SEQ ID NO: 166] | HLA-DRB1*04:05, HLA-DRB1*07:01,; also recorded: HLA-DRB1*12:01, HLA-DRB1*09:01,; also recorded: HLA-DRB4*01:01,; also recorded: HLA-DPA1*02:01/DPB1*14:01
40 | SGSDYSHSMIRDLDF (listed as Leishmania infantum) [SEQ ID NO: 167] | HLA-DRB1*01:01, HLA-DRB1*04:05,; also recorded: HLA-DRB1*07:01, HLA-DRB1*09:01,; also recorded: HLA-DRB5*01:01,; also recorded: HLA-DPA1*02:01/DPB1*14:01
41 | SHSMIRDLDGSNMGL (SHSMIRDLDFSNMGL; listed as Leishmania infantum) [SEQ ID NO: 168] | HLA-DRB1*03:01, HLA-DRB1*04:01,; also recorded: HLA-DRB1*04:05, HLA-DRB1*08:02,; also recorded: HLA-DRB1*12:01, HLA-DRB4*01:01
